Reference: the CheMixHub ionic liquid set
“And” between values parts separate entries of the source, which are not always exact repeats. Equal values may be shown once.

Test: xn = mol fraction of the nth substance listed

CN(CCO)CCO + CCCC[n+]1ccn(C)c1.F[B-](F)(F)F + O
viscosity [mPa·s], 101 kPa
Settings	293.15 K	303.15 K	313.15 K	323.15 K	333.15 K
x2 = 0.0987, x1 = 0.7994	86.7	48.2	28.8	18.4	12.32
x2 = 0.0989, x1 = 0.623	77.4	43.7	26.1	16.6	11.12
x2 = 0.0991, x1 = 0.4459	59.2	33.7	20.4	13.16	8.94
x2 = 0.0993, x1 = 0.2681	32.9	19.2	12.08	8.13	5.78
x2 = 0.0995, x1 = 0.0895	8.59	5.78	4.14	3.11	2.41
x2 = 0.1972, x1 = 0.7097	77.7	43.1	26	16.8	11.42
x2 = 0.1978, x1 = 0.5528	67.4	37.3	22.6	14.63	9.99
x2 = 0.1979, x1 = 0.3957	50.3	28.3	17.5	11.53	8.07
x2 = 0.1982, x1 = 0.2378	28.6	17	11.04	7.72	5.63
x2 = 0.1986, x1 = 0.0794	10.66	7.28	5.26	3.98	3.12
x2 = 0.2954, x1 = 0.6203	72.6	40.5	24.7	16.15	11.16
x2 = 0.2959, x1 = 0.4832	60.5	34.2	21.1	13.97	9.79
x2 = 0.2963, x1 = 0.3457	45	26.1	16.5	11.2	8.04
x2 = 0.2968, x1 = 0.2077	27.8	17.2	11.44	8.18	6.09
x2 = 0.2972, x1 = 0.0694	13.16	9.12	6.68	5.08	4
x2 = 0.3934, x1 = 0.531	68.7	39.1	24.3	16.14	11.32
x2 = 0.3939, x1 = 0.4136	56.5	32.9	20.8	14.05	10.02
x2 = 0.3944, x1 = 0.2958	43	25.9	16.8	11.65	8.49
x2 = 0.395, x1 = 0.1777	28.8	18.3	12.49	8.99	6.8
x2 = 0.3955, x1 = 0.0593	16.8	11.66	8.53	6.54	5.13
x2 = 0.4912, x1 = 0.442	66.5	38.9	24.6	16.7	11.88
x2 = 0.4917, x1 = 0.3442	57.5	34.4	21.8	14.94	10.7
x2 = 0.4923, x1 = 0.2461	44.3	27.4	18.2	12.72	9.42
x2 = 0.493, x1 = 0.1478	32.9	21.3	14.71	10.66	8.1
x2 = 0.4934, x1 = 0.0493	22.1	15.2	10.99	8.33	6.54
x2 = 0.5887, x1 = 0.3532	69.7	41.6	26.2	17.9	12.88
x2 = 0.5893, x1 = 0.275	60	37.1	23.5	16.3	11.86
x2 = 0.5898, x1 = 0.1966	49.1	30.6	20.7	14.67	10.75
x2 = 0.5903, x1 = 0.118	39.4	25.6	17.7	12.8	9.64
x2 = 0.5909, x1 = 0.0394	29.3	20	14.32	10.68	8.29
x2 = 0.6861, x1 = 0.2646	74.6	45.2	28.8	19.8	14.34
x2 = 0.6866, x1 = 0.2059	66.4	41	26.5	18.5	13.45
x2 = 0.687, x1 = 0.1472	57.5	35.8	24.1	17.1	12.65
x2 = 0.6874, x1 = 0.0884	47.3	30.3	20.9	15.08	11.36
x2 = 0.6877, x1 = 0.0295	40.3	26.6	18.8	13.79	10.55
x2 = 0.7831, x1 = 0.1762	84.7	51.6	32.9	22.7	16.5
x2 = 0.7836, x1 = 0.1371	78.6	48.6	31.5	22	16.01
x2 = 0.7839, x1 = 0.0979	72.2	44.8	29.8	20.9	15.35
x2 = 0.7842, x1 = 0.0588	65.6	41.8	28.1	20	14.73
x2 = 0.7845, x1 = 0.0196	56.4	36.7	25	18	13.44
x2 = 0.8801, x1 = 0.0879	102	62.1	40.3	27.1	19.5
x2 = 0.8804, x1 = 0.0684	99.2	60.7	39.7	26.8	19.3
x2 = 0.8805, x1 = 0.0294	90.7	56.4	37.2	25.5	18.5
x2 = 0.8806, x1 = 0.0098	80.9	50.9	33.8	23.7	17.3
x2 = 0.8806, x1 = 0.0488	94.5	58.3	38.5	26.1	18.9

CCCC[n+]1ccn(C)c1.F[B-](F)(F)F + CCCC[n+]1ccn(C)c1.F[P-](F)(F)(F)(F)F
101 kPa, x2 = 0
Settings	viscosity [mPa·s]
299.15 K	101.9
301.15 K	92
303.15 K	83.4

O=C1CCCC1 + CCCC[n+]1ccn(C)c1.F[P-](F)(F)(F)(F)F
298.15 K, 101.3 kPa
Settings	viscosity [mPa·s]
x1 = 0.0936	175
x1 = 0.3093	66
x1 = 0.4012	42.2
x1 = 0.5514	19.23

CC(=O)[O-].CCCC[n+]1ccn(C)c1 + CCCC[n+]1ccn(C)c1.O=S(=O)([N-]S(=O)(=O)C(F)(F)F)C(F)(F)F
101 kPa
Settings	electrical conductivity [S/m]	viscosity
283.15 K, x2 = 0	0.0145	1815 mPa·s
283.15 K, x2 = 0.1057	0.0213	1212 mPa·s
283.15 K, x2 = 0.3662	0.0403	565 mPa·s
298.15 K, x2 = 0.8097	0.28	73 mPa·s
303.15 K, x1 = 0.5001	–	100 mPa·s
303.15 K, x1 = 0.7497	–	161.5 mPa·s
313.15 K, x2 = 0	0.138	154 mPa·s
313.15 K, x2 = 0.1057	0.168	128 mPa·s
313.15 K, x2 = 0.3662	0.236	82 mPa·s
313.15 K, x2 = 0.6541	0.387	49.4 mPa·s
313.15 K, x2 = 0.8097	0.504	38.2 mPa·s
314.3 K, x2 = 0	–	126 mPa·s and 138 mPa·s
314.3 K, x2 = 0.7282	0.474	39.2 mPa·s
323.15 K, x1 = 0.7497	–	56 mPa·s
333.15 K, x2 = 0.1057	0.416	47.4 mPa·s

CC1CC(=O)O1 (configuration not stated) + CCCC[n+]1ccn(C)c1.O=S(=O)([N-]S(=O)(=O)C(F)(F)F)C(F)(F)F
electrical conductivity [S/m], 100 kPa, frequency 0.01 MHz
Settings	293.15 K	298.15 K	303.15 K	308.15 K	313.15 K	318.15 K	323.15 K
x2 = 0.0493	0.874	0.942	1.02	1.1	1.2	1.29	1.38
x2 = 0.1001	1.1	1.22	1.34	1.48	1.62	1.74	1.89
x2 = 0.1526	1.21	1.34	1.49	1.64	1.8	1.94	2.12
x2 = 0.2001	1.2	1.32	1.47	1.62	1.79	1.97	2.16
x2 = 0.3001	1.02	1.15	1.28	1.42	1.58	1.76	1.96
x2 = 0.4013	0.782	0.883	1	1.13	1.26	1.43	1.61
x2 = 0.5004	0.619	0.701	0.804	0.91	1.02	1.16	1.3
x2 = 0.5995	0.505	0.58	0.67	0.754	0.857	0.976	1.1
x2 = 0.6929	0.437	0.504	0.584	0.665	0.758	0.865	0.992
x2 = 0.814	0.39	0.451	0.521	0.592	0.677	0.775	0.886
x2 = 0.9001	0.353	0.417	0.484	0.557	0.645	0.74	0.837

CC1COC(=O)O1 (configuration not stated) + CCCC[n+]1ccn(C)c1.O=S(=O)([N-]S(=O)(=O)C(F)(F)F)C(F)(F)F
101.3 kPa
Settings	viscosity [mPa·s]
293.15 K, x2 = 0.8776	51
298.15 K, x2 = 0.1013	4.029
298.15 K, x2 = 0.7	28.89
303.15 K, x2 = 0.8079	29.79
303.15 K, x2 = 0.8776	33.75
308.15 K, x2 = 0.1013	3.249
308.15 K, x2 = 0.1557	4.102
308.15 K, x2 = 0.4128	9.65
308.15 K, x2 = 0.5045	12.33
313.15 K, x2 = 0.5045	10.67
318.15 K, x2 = 0.7	15.35
323.15 K, x2 = 0.7	13.28
333.15 K, x2 = 0.8776	13.61
338.15 K, x2 = 0.3071	3.659
348.15 K, x2 = 0	1.14
348.15 K, x2 = 0.1557	2.025

CCCCCCCCO + CCCC[n+]1ccn(C)c1.O=S(=O)([N-]S(=O)(=O)C(F)(F)F)C(F)(F)F
100 kPa
Settings	electrical conductivity, x2 = 0.03335 [S/m]	viscosity, x2 = 0 [mPa·s]	viscosity, x2 = 0.8499 [mPa·s]	viscosity, x2 = 0.8986 [mPa·s]
294.5 K	0.02	–	–	–
298 K	–	7.614	37.77	40.18

Nc1ccccc1 + CCCC[n+]1ccn(C)c1.O=S(=O)([N-]S(=O)(=O)C(F)(F)F)C(F)(F)F
viscosity [mPa·s], 100 kPa
Settings	288.15 K	293.15 K	298.15 K	303.15 K	308.15 K	313.15 K	318.15 K	323.15 K	328.15 K	333.15 K
x1 = 0.1	66.3	52.2	42.1	34.3	28.6	23.9	20.44	17.56	15.22	13.34
x1 = 0.2	55.9	44.1	35.9	29.3	24.5	20.59	17.66	15.22	13.24	11.63
x1 = 0.3029	46.5	36.8	30.1	24.7	20.77	17.48	15.05	13.02	11.36	10.01
x1 = 0.4013	38.5	30.6	25.1	20.73	17.48	14.76	12.76	11.06	9.68	8.56
x1 = 0.5024	31.1	24.8	20.42	16.98	14.38	12.17	10.57	9.19	8.08	7.16
x1 = 0.6002	24.6	19.71	16.28	13.64	11.58	9.84	8.59	7.5	6.61	5.88
x1 = 0.7	18.38	14.86	12.4	10.47	8.92	7.61	6.68	5.86	5.19	4.64
x1 = 0.8002	13.46	10.93	9.22	7.8	6.71	5.77	5.09	4.5	4	3.59
x1 = 0.9	8.74	7.19	6.1	5.2	4.5	3.9	3.46	3.08	2.76	2.48
x1 = 1	5.32	4.41	3.74	3.2	2.78	2.45	2.159	1.927	1.738	1.577

O=C1CCCCO1 + CCCC[n+]1ccn(C)c1.O=S(=O)([N-]S(=O)(=O)C(F)(F)F)C(F)(F)F
100 kPa, frequency 0.01 MHz
Settings	electrical conductivity [S/m]
293.15 K, x2 = 0.1504	0.602
293.15 K, x2 = 0.4006	0.589
293.15 K, x2 = 0.8475	0.346
298.15 K, x2 = 0.1004	0.428
298.15 K, x2 = 0.4006	0.665
298.15 K, x2 = 0.5005	0.594
298.15 K, x2 = 0.5999	0.484
303.15 K, x2 = 0.1004	0.471
303.15 K, x2 = 0.1504	0.717
308.15 K, x2 = 0.0532	0.209
308.15 K, x2 = 0.1004	0.512
308.15 K, x2 = 0.2988	0.9
308.15 K, x2 = 0.7214	0.609
318.15 K, x2 = 0.1999	1.04
323.15 K, x2 = 0.0532	0.263
323.15 K, x2 = 0.1504	1
323.15 K, x2 = 0.1999	1.13
323.15 K, x2 = 0.7214	0.895

Nc1ccccc1 + CCCC[n+]1ccn(C)c1.O=S(=O)([O-])C(F)(F)F
Settings	viscosity [mPa·s]
323.15 K, 100 kPa, x1 = 1	1.927

O + CCCC[n+]1ccn(C)c1.[Br-]
101 kPa, x2 = 0
Settings	electrical conductivity [S/m]
288.15 K	0.000101
298.15 K	0.00015
308.15 K	0.000216
